Source: publication PMC12339982 (Nature Communications, 2025)
Positions count from the first letter of the chain named.

Assays:
Settings in all cases: mean ± s.e.m., n=3
TauT E406A mutant = molecular target: T1, TauT E406A mutant (Homo sapiens, UniProt P31641, E406A); experiment: MST binding, TauT E406A
T1 sequence (P31641 1-620 E406A): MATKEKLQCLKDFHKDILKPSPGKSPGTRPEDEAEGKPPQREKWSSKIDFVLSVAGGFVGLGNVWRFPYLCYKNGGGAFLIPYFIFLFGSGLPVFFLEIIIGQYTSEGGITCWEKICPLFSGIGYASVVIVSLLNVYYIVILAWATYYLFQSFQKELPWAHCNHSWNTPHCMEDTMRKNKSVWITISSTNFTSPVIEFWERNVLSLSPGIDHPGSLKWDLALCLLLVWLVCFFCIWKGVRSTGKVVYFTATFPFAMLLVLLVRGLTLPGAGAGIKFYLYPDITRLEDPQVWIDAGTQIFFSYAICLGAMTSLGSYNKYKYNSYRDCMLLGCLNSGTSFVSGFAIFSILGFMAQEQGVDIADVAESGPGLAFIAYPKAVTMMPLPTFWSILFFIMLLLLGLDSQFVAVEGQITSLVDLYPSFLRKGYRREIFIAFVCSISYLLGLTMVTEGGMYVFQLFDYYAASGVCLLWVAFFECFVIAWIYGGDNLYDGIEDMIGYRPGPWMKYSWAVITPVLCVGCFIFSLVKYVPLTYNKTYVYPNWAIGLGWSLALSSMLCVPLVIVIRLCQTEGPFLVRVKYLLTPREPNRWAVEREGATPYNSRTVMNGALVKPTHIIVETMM

TauT F300A mutant = molecular target: T2, TauT F300A mutant (Homo sapiens, UniProt P31641, F300A); experiment: MST binding, TauT F300A
T2 sequence (P31641 1-620 F300A): T1 sequence (P31641 1-620 E406A) with F300A, A406E

TauT Y138A mutant = molecular target: T3, TauT Y138A mutant (Homo sapiens, UniProt P31641, Y138A); experiment: MST binding, TauT Y138A
T3 sequence (P31641 1-620 Y138A): T1 sequence (P31641 1-620 E406A) with Y138A, A406E

TauT G62A mutant = molecular target: T4, TauT G62A mutant (Homo sapiens, UniProt P31641, G62A); experiment: MST binding, TauT G62A
T4 sequence (P31641 1-620 G62A): T1 sequence (P31641 1-620 E406A) with G62A, A406E

| Kd (MST) (TauT F300A mutant) | Kd (MST) (TauT Y138A mutant) | Kd (MST) (TauT G62A mutant) | SMILES | Kd (MST) (TauT E406A mutant) |
| --- | --- | --- | --- | --- |
| drastic loss of GAA binding affinity | drastic loss of GAA binding affinity | drastic loss of GAA binding affinity | [H]/N=C(/N)NCC(=O)O [GAA, guanidinoacetate] | only marginally weakened the binding affinity |
| complete loss of the binding | complete loss of the binding | complete loss of the binding | NCCCC(=O)O [GABA, γ-aminobutyric acid] | reduces the binding affinity of GABA slightly |

| SMILES | Kd (MST) (TauT F300A mutant) | Kd (MST) (TauT Y138A mutant) | Kd (MST) (TauT G62A mutant) | Kd (MST) (TauT E406A mutant) |
| --- | --- | --- | --- | --- |
| NCCS(=O)(=O)O [Taurine, taurine] | reduced the taurine binding to varying extents | undetectable binding | – | reduced the taurine binding to varying extents |
